From patent US8420600B2 (Vallinex, Inc., priority 2002, dated 2013)
Values joined by “and” are separate entries in the source; they are usually repeats but may differ in a detail not shown here. Equal values may be shown once.

Legend:
[1] = tested on: subjects with osteoarthritis of the knee; assay: Osteoarthritis of the Knee Safety Study: VAS pain at the target knee; assay type: in vivo, human
Method: (§1) The study was designed to include 16 evaluation subjects. […] Sixteen subjects completed the study.
(§2) Patients were treated randomly and in double-blind fashion in four treatment cohorts, with each cohort having a progressively longer interval between the intra-articular administration of study medication and subsequent total knee replacement (2, 4, 7, and 14 days). […] Gross and microscopic pathology analysis was completed for each treatment cohort before the next treatment cohort was treated.
(§3) Each subject had 3 study visits: a Screening Day (Day −7 to −1), the Treatment Day (Day 0), and a Post-Treatment Day (scheduled for Day +2, +4, +7, or +14). On the Treatment Day the subject was randomized, pre-treatment evaluation was performed. The patients were brought into the procedure room, and a VAS pain score was taken (0 mm—no pain, 100 mm—extreme pain). Once the patient had marked his or her pain on the card, he/she was prepped for knee cannulation. Once the cannula was placed, the patient received by intra-articular infiltration, 3 mg/kg (maximum dose of 200 mg) of 2% lignocaine into the knee scheduled to be replaced.
VAS pain scores as well as verbal reports were taken immediately following administration, as well as prior to knee replacement surgery. No subjects discontinued from the study due to adverse events. […]

[2] = tested on: subjects with osteoarthritis of the knee; assay: Osteoarthritis of the Knee Safety Study: safety and tolerability of intra-articular capsaicin; assay type: in vivo, human
Method: The primary objective of the study was to evaluate the safety and tolerability of intra-articular capsaicin, when co-administered with intra-articular local anesthetic, compared to placebo, in subjects with end-stage osteoarthritis of the knee, already scheduled to receive knee replacements.
as §1, §2, §3
VAS pain scores as well as verbal reports were taken immediately following administration, as well as prior to knee replacement surgery. No subjects discontinued from the study due to adverse events.
On the Post-Treatment Day, study evaluation was performed followed by the scheduled knee replacement, with intra-operative bone and soft tissue biopsies performed for subsequent examination. […] This therefore left the 3 placebo and 9 active patients from the 4 day, 7 day, and 14 day cohorts.

[3] = tested on: subjects undergoing transpositional osteotomy (bunionectomy); assay: Bunionectomy Efficacy Study: VAS pain score and rescue medication; assay type: in vivo, human; settings: for VAS pain score (Table 4), mean +/− SEM: 1000 μg into the wound prior to closure, n = 11
Method: The primary efficacy endpoint was the proportion of subjects in each treatment group requiring opioid analgesia in the first 24 hours post-operatively. The proportions were compared amongst treatment groups using the Cochran-Haenszel test. Secondary efficacy end points included: i) proportion of subjects in each treatment group requiring opioid analgesia in the first 36 hour period post-operatively (Similarly, the proportions were compared amongst treatment groups using the Cochran-Haenszel test); ii) proportion of subjects in each treatment group requiring opioid analgesia in the 10 day period post-operatively (Similarly, the proportions were compared amongst treatment groups using the Cochran-Haenszel test); iii) time to first usage of opioid analgesia in each treatment group (a survival analysis approach will be used: the product-limit (Kaplan-Meier) method will be applied to time to first usage of opioid analgesia. The median time to first usage of opioid analgesia will be estimated in both treatment groups. Pairwise comparisons will be performed to test for equality of the survival curves between the 2 treatment groups using both the log-rank and the Wilcoxon test); iv) total usage of analgesia in each treatment group (the total usage of analgesia will be compared by an analysis of variance with treatment and center as independent variables. A pairwise comparison will be performed between the treatment groups); and v) VAS assessment of pain at the site of operation in each treatment group (The VAS score at each time point will be compared by an analysis of variance with treatment and center as independent variables. A pairwise comparison will be performed between the treatment groups). […] The efficacy analysis was performed on the data obtained ten days postoperatively. The safety analysis was performed based on the safety data for the entire study, including the 6 week and 12 week follow-up periods. The blind was broken at the time the efficacy analysis was performed. However, the individual treatment assignment was available to the statistical analysis group only. All other personnel involved in the study, including the Investigator, study monitor and proprietary staff, remained blinded until the entire study was completed.
The study was designed to include 40 evaluation subjects. […] Each subject had six (6) study visits: a Screening Day (Day −28 to −1), an Operation Day (Day 0), and four (4) Follow-up visits (scheduled for Days 3, 10 and weeks 6 and 12).
On Operation Day (Day 0) the following was performed: a) Pre-operation: Prior to the initiation of an ankle block, inclusion/exclusion criteria assessment was performed. […] Immediately prior to wound closure, the Investigator slowly dripped the study medication (4 mL) from a syringe into the wound, ensuring even tissue exposure. The wound was then closed according to normal practices and procedures.
In the 24 hours following administration of study medication, vital signs (supine pulse rate and blood pressure) were recorded at 1, 2, 4 and 24 hours post administration. VAS assessment of pain at the operation site was performed at 1, 4, 8, 12 and 24 hours post administration. In those instances where VAS measurements coincide with blood sampling procedures, the VAS assessment was performed first. […] The quantity of each blood sample was 10 mL. Laboratory safety assessments, e.g., haematology, biochemistry, urinalysis were performed at 24 hours post administration. Adverse events were spontaneously reported by the subject and recorded. Rescue analgesia medication was provided to the subject if required (initially diclofenac 50 mg, repeated at 8 hourly intervals if necessary). When diclofenac was judged by the Investigator to provide inadequate pain relief then the subject was provided with alfentanil, 1 mg, repeated at 6 hourly intervals when necessary.

[4] = tested on: radiation induced hyperalgesia; settings: systemically delivered, cited from earlier work

Structure (SMILES): COc1cc(CNC(=O)CCCC/C=C/C(C)C)ccc1O [capsaicin, N-(4-hydroxy-3-methoxybenzyl)-8-methylnon-trans-6-enamide]
- reduction of VAS pain score, prior to drug administration vs day of surgery ([1]; 9 active patients of the 4 day, 7 day and 14 day cohorts, 10, 100 and 300 μg pooled): 62±14%
- treatment related indication of efficacy (VAS) ([1]; dose levels 10 μg, 100 μg and 300 μg): No clear treatment related indication of efficacy was seen
- duration of post-administration (hyper) algesic pain ([2]; 300 μg dose group, individual subjects): 17 minutes and 25 minutes (2×) and 42 minutes
- proprioception at the injected knee ([2]; any dose group, any time point): no discernable effect
- average duration of post injection hyperalgesia ([2]; burning sensation, 100 and 300 μg dose groups): less than thirty minutes
- erythema, edema or hemorrhage at the site of injection ([2]; in vivo): no treatment related signs
- histopathological examination of soft tissue, cartilage and bone ([2]; in vivo): no treatment related effects on soft tissue, cartilage, or bone
- laboratory safety parameters and vital signs ([2]; in vivo): no treatment related effects on laboratory safety parameters or vital signs
- systemic side effects ([2]; in vivo): No treatment related systemic side effects were seen
- leakage of study drug from the joint space ([2]; intra-articular, knee): low leakage
- gross and microscopic pathology ([2]; knee tissue at replacement): normal
- VAS pain score (Table 4), mean +/− SEM ([3]; 8 hr): 5.5 +/− 2.3
- VAS pain score (Table 4), mean +/− SEM ([3]; 12 hr): 8.2 +/− 3.8
- VAS pain score (Table 4), mean +/− SEM ([3]; 24 hr): 1.9 +/− 1.0
- VAS pain score (Table 4), mean +/− SEM ([3]; 48 hr): 5.9 +/− 2.5
- effect on opioid rescue ([3]; 1000 μg prior to wound closure): decreased opioid rescue
- time at which a subject required rescue ([3]; 1000 μg prior to wound closure, individual subjects): 1 h and 4 h and 5 h and 8 h and 12 h
- effect on radiation induced hyperalgesia ([4]; final doses of 25 mg/kg or less prior to ultra violet radiation): prevented radiation induced hyperalgesia
- effect on pain threshold ([4]; final doses of 25 mg/kg or less): did not elevate the pain threshold above normal range
